Among the data in US11878965B2, “Inhibitors of peptidylarginine deiminases” (Gilead Sciences, Inc., priority 2020, dated 2024) are IC50 values, retold here.

Each structure is given as a SMILES string.

One assay deals with human PAD4 (Homo sapiens (Human), UniProt Q9UM07). Kind of assay: In Vitro PAD4 BAEE Biochemical Assay. As to conditions: human PAD4, BAEE substrate; 5 nM PAD4, 2 mM calcium chloride, 3 mM BAEE; geometric mean of multiple experiments. A digest of the protocol: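 Deimination of BAEE substrate (3 mM) measured as ammonia via o-phthalaldehyde–DTT isoindole fluorescence, 405/535 nm. Tag-free bacterially expressed human PAD4 at 5 nM with 2 mM calcium chloride, pH 7.6 MOPS buffer, 30 min compound preincubation then 2 h reaction, both at 25 °C.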
human PAD4, sequence (Q9UM07 2-663): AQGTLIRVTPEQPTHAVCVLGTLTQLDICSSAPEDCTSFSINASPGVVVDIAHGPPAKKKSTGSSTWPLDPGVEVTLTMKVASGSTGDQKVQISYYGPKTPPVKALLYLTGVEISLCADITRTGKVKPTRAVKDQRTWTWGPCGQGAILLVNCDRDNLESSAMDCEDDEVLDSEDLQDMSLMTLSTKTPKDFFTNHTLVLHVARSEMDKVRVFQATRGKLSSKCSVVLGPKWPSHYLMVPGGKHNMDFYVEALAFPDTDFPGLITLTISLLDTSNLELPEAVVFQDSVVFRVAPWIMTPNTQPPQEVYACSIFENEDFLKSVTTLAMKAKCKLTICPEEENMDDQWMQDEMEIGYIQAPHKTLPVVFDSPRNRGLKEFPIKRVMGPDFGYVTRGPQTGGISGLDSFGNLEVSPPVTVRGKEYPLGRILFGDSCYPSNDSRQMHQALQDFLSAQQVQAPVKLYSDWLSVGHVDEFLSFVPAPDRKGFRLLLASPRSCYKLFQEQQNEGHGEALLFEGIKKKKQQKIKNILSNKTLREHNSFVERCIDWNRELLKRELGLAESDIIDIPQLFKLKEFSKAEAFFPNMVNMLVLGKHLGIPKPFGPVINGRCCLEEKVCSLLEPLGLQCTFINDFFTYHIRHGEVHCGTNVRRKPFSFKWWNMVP
For the compound `COc1cc(C(=O)N2C[C@H](N)CCN2C)cc2nc(-c3cc4ccc([C@@H](C)NC(=O)c5c(F)cccc5F)nc4n3CC3CC3)n(C)c12` [Example 210, N-((R)-1-(2-(5-((R)-5-amino-2-methylhexahydropyridazine-1-carbonyl)-7-methoxy-1-methyl-1H-benzo[d]imidazol-2-yl)-1-(cyclopropylmethyl)-1H-pyrrolo[2,3-b]pyridin-6-yl)ethyl)-2,6-difluorobenzamide], the IC50 (usually the point on the concentration scale where inhibition reaches its midpoint) stood at 129 nM. Consider `COc1cc(C(=O)N2[C@H]3CC[C@@H]2[C@H](N)C3)cc2nc(-c3cc4ccc([C@@H](C)NC(=O)C(C)n5cccn5)nc4n3CC3CC3)n(C)c12` (stereo partly drawn) [Example 211, N-((R)-1-(2-(5-((1R,2R,4S)-2-amino-7-azabicyclo[2.2.1]heptane-7-carbonyl)-7-methoxy-1-methyl-1H-benzo[d]imidazol-2-yl)-1-(cyclopropylmethyl)-1H-pyrrolo[2,3-b]pyridin-6-yl)ethyl)-2-(1H-pyrazol-1-yl)propanamide], for which the IC50 was 92 nM. Still for that read-out and setting: then `COc1cc(C(=O)N2C[C@H](N)CCN2C)cc2nc(-c3cc4ccc([C@@H](C)NC(=O)c5cccc(F)c5C)nc4n3CC3CC3)n(C)c12` [Example 212, N-((R)-1-(2-(5-((R)-5-amino-2-methylhexahydropyridazine-1-carbonyl)-7-methoxy-1-methyl-1H-benzo[d]imidazol-2-yl)-1-(cyclopropylmethyl)-1H-pyrrolo[2,3-b]pyridin-6-yl)ethyl)-3-fluoro-2-methylbenzamide], with 170 nM. The same measure, in the same setting: the figure for `COc1cc(C(=O)N2C[C@H](N)CCN2C)cc2nc(-c3cc4ccc([C@@H](C)NC(=O)c5cc(F)cc(F)c5C)nc4n3CC3CC3)n(C)c12` [Example 213, N-((R)-1-(2-(5-((R)-5-amino-2-methylhexahydropyridazine-1-carbonyl)-7-methoxy-1-methyl-1H-benzo[d]imidazol-2-yl)-1-(cyclopropylmethyl)-1H-pyrrolo[2,3-b]pyridin-6-yl)ethyl)-3,5-difluoro-2-methylbenzamide] is 134 nM; for `COc1cc(C(=O)N2C[C@H](N)CCN2C)cc2nc(-c3cc4ccc([C@@H](C)NC(=O)c5ccc(C)nc5C)nc4n3CC3CC3)n(C)c12` [Example 214, N-((R)-1-(2-(5-((R)-5-amino-2-methylhexahydropyridazine-1-carbonyl)-7-methoxy-1-methyl-1H-benzo[d]imidazol-2-yl)-1-(cyclopropylmethyl)-1H-pyrrolo[2,3-b]pyridin-6-yl)ethyl)-2,6-dimethylnicotinamide] it is 100 nM; for `COc1cc(C(=O)N2C[C@H](N)CCN2C)cc2nc(-c3cc4ccc([C@@H](C)NC(=O)C5(CCF)CC5)nc4n3CC3CC3)n(C)c12` [Example 215, N-((R)-1-(2-(5-((R)-5-amino-2-methylhexahydropyridazine-1-carbonyl)-7-methoxy-1-methyl-1H-benzo[d]imidazol-2-yl)-1-(cyclopropylmethyl)-1H-pyrrolo[2,3-b]pyridin-6-yl)ethyl)-1-(2-fluoroethyl)cyclopropane-1-carboxamide] it is 111 nM. As to `C[C@@H](NC(=O)C(C)(C)C)c1ccc2cc(-c3nc4cc(C(=O)N[C@H]5CNCC[C@@H]5F)c(F)cc4n3C)n(CC3CC3)c2n1` [Example 216, 2-(1-(cyclopropylmethyl)-6-((R)-1-pivalamidoethyl)-1H-pyrrolo[2,3-b]pyridin-2-yl)-6-fluoro-N-((3S,4S)-4-fluoropiperidin-3-yl)-1-methyl-1H-benzo[d]imidazole-5-carboxamide], the IC50 came out at 158 nM. Still for that read-out and setting: then `COc1cc(C(=O)N2C[C@H](N)[C@@H]3CC[C@H]2C3)cc2nc(-c3cc4ccc([C@@H](C)NC(=O)[C@H]5CC5(F)F)nc4n3CC3CC3)n(C)c12` [Example 220, (R)-N-((R)-1-(2-(5-((1S,4R,5R)-4-amino-2-azabicyclo[3.2.1]octane-2-carbonyl)-7-methoxy-1-methyl-1H-benzo[d]imidazol-2-yl)-1-(cyclopropylmethyl)-1H-pyrrolo[2,3-b]pyridin-6-yl)ethyl)-2,2-difluorocyclopropane-1-carboxamide], with 54.9 nM; and `COc1cc(C(=O)N2C[C@H](N)[C@@H]3CC[C@H]2C3)cc2nc(-c3cc4ccc([C@@H](C)NC(=O)C(C)(C)C)nc4n3CC3CC3)n(C)c12` [Example 221, N-((R)-1-(2-(5-((1S,4R,5R)-4-amino-2-azabicyclo[3.2.1]octane-2-carbonyl)-7-methoxy-1-methyl-1H-benzo[d]imidazol-2-yl)-1-(cyclopropylmethyl)-1H-pyrrolo[2,3-b]pyridin-6-yl)ethyl)pivalamide], with 61 nM. Still for that read-out and setting: the figure for `COc1cc(C(=O)N2C[C@H](N)[C@@H]3CC[C@H]2C3)cc2nc(-c3cc4ccc([C@@H](C)NC(=O)c5ccccc5)nc4n3CC3CC3)n(C)c12` [Example 222, N-((R)-1-(2-(5-((1S,4R,5R)-4-amino-2-azabicyclo[3.2.1]octane-2-carbonyl)-7-methoxy-1-methyl-1H-benzo[d]imidazol-2-yl)-1-(cyclopropylmethyl)-1H-pyrrolo[2,3-b]pyridin-6-yl)ethyl)benzamide] is 53.5 nM; for `COc1cc(C(=O)N2C[C@H](N)[C@@H]3CC[C@H]2C3)cc2nc(-c3cc4ccc([C@@H](C)NC(=O)C56CC(F)(C5)C6)nc4n3CC3CC3)n(C)c12` [Example 223, N-[(1R)-1-[2-[5-[(1S,4R,5R)-4-amino-2-azabicyclo[3.2.1]octane-2-carbonyl]-7-methoxy-1-methyl-benzimidazol-2-yl]-1-(cyclopropylmethyl)pyrrolo[2,3-b]pyridin-6-yl]ethyl]-3-fluorobicyclo[1.1.1]pentane-1-carboxamide] it is 57.2 nM. Same read-out and setting: the figure for `COc1cc(C(=O)N2C[C@H](N)[C@@H]3CC[C@H]2C3)cc2nc(-c3cc4ccc([C@@H](C)NC(=O)c5cnn(C(F)F)c5)nc4n3CC3CC3)n(C)c12` [Example 224, N-((R)-1-(2-(5-((1S,4R,5R)-4-amino-2-azabicycIo[3.2.1]octane-2-carbonyl)-7-methoxy-1-methyl-1H-benzo[d]imidazol-2-yl)-1-(cyclopropylmethyl)-1H-pyrrolo[2,3-b]pyridin-6-yl)ethyl)-1-(difluoromethyl)-1H-pyrazole-4-carboxamide] is 48.1 nM. Consider `COc1cc(C(=O)N2C[C@H](N)[C@@H]3CC[C@H]2C3)cc2nc(-c3cc4ccc([C@@H](C)NC(=O)c5ccc(Cl)nc5)nc4n3CC3CC3)n(C)c12` [Example 225, N-((R)-1-(2-(5-((1S,4R,5R)-4-amino-2-azabicyclo[3.2.1]octane-2-carbonyl)-7-methoxy-1-methyl-1H-benzo[d]imidazol-2-yl)-1-(cyclopropylmethyl)-1H-pyrrolo[2,3-b]pyridin-6-yl)ethyl)-6-chloronicotinamide], for which the IC50 is 48.1 nM.

The same assay, now with this note: recombinant PAD4 5 nM, 2 mM calcium chloride, 3 mM BAEE substrate; geometric mean of multiple experiments.
As for `C[C@@H](NC(=O)C12CC(F)(C1)C2)c1ccc2cc(-c3nc4cc(C(=O)N5C[C@H](N)[C@@H]6CC[C@H]5C6)cc(F)c4n3C3CC3)n(CC3CC3)c2n1` [Example 219, N-((R)-1-(2-(5-((1S,4R,5R)-4-amino-2-azabicyclo[3.2.1]octane-2-carbonyl)-1-cyclopropyl-7-fluoro-1H-benzo[d]imidazol-2-yl)-1-(cyclopropylmethyl)-1H-pyrrolo[2,3-b]pyridin-6-yl)ethyl)-3-fluorobicyclo[1.1.1]pentane-1-carboxamide], the IC50 is 78.6 nM.
